In ChEMBL document CHEMBL1145685, “In vitro and in vivo antiplasmodial activity of cryptolepine and related alkaloids from Cryptolepis sanguinolenta” (J Nat Prod, 1997):
Converted amounts (≈) assume the structure as drawn.

How the values were obtained:
Plasmodium falciparum [1] = assay: Antiplasmodial activity against chloroquine-resistant Plasmodium falciparum W2 infected human erythrocytes by [3H]hypoxanthine uptake; type: functional, organism-based
Plasmodium falciparum [2] = assay: Antiplasmodial activity against chloroquine-sensitive Plasmodium falciparum D6 infected human erythrocytes by [3H]hypoxanthine uptake; type: functional, organism-based
Plasmodium falciparum [3] = assay: Antiplasmodial activity against Plasmodium falciparum K1 infected human erythrocytes by [3H]hypoxanthine uptake; type: functional, organism-based
Plasmodium yoelii [4] = assay: Antimalarial activity as reduced parasitaemia against Plasmodium berghei yoelii infected Swiss albino mice (Mus musculus) at 5 mg/kg/day peroral dose for 4 days; type: functional; design: scale not given: the % may be the effect or the level left; settings: route oral
Plasmodium berghei [5] = assay: Antimalarial activity as reduced parasitaemia against Plasmodium berghei infected Swiss albino mice (Mus musculus) at 5 mg/kg/day peroral dose for 4 days; type: functional; design: scale not given: the % may be the effect or the level left; settings: route oral
Plasmodium berghei [6] = assay: Antimalarial activity as reduced parasitaemia against Plasmodium berghei infected Swiss albino mice (Mus musculus) at 50 mg/kg/day peroral dose for 4 days; type: functional; design: scale not given: the % may be the effect or the level left; settings: route oral
Plasmodium yoelii [7] = assay: Antimalarial activity as reduced parasitaemia against Plasmodium berghei yoelii infected Swiss albino mice (Mus musculus) at 50 mg/kg/day peroral dose for 4 days; type: functional; design: scale not given: the % may be the effect or the level left; settings: route oral

Compound | IC50 (Plasmodium falciparum [1]) | IC50 (Plasmodium falciparum [2]) | IC50 (Plasmodium falciparum [3]) | Activity (Plasmodium yoelii [4]) | Activity (Plasmodium berghei [5]) | Activity (Plasmodium berghei [6]) | Activity (Plasmodium yoelii [7])
C[C@@H]1CC[C@H]2[C@@H](C)C(=O)O[C@@H]3O[C@@]4(C)CC[C@@H]1[C@]32OO4 [ARTEMISININ] | 0.0027 µg/mL (≈ 0.00956 µM) | 0.0025 µg/mL (≈ 0.00885 µM) | 0.0033 µg/mL (≈ 0.0117 µM) | – | – | – | –
CCN(CC)CCCC(C)Nc1ccnc2cc(Cl)ccc12 (stereo unspecified) [CHLOROQUINE] | – | – | – | 1.65% | 2.2% | – | –
C[n+]1c2ccccc2cc2[n-]c3ccccc3c21.Cl [CRYPTOLEPINE HYDROCHLORIDE] | 0.052 µg/mL | 0.041 µg/mL | 0.062 µg/mL | – | – | 15.6% | 10.8%
C[n+]1c2ccccc2cc2[n-]c3ccccc3c21 [CRYPTOLEPINE] | 0.041 µg/mL (≈ 0.177 µM) | 0.027 µg/mL (≈ 0.116 µM) | 0.033 µg/mL (≈ 0.142 µM) | – | – | 45.4% | 13.7%
Cn1c2c3ccccc3nc-2c(O)c2ccccc21 [HYDROXYCRYPTOLEPINE] | 0.059 µg/mL (≈ 0.238 µM) | 0.031 µg/mL (≈ 0.125 µM) | 0.045 µg/mL (≈ 0.181 µM) | – | – | 43.2% | –
OC(c1cc(C(F)(F)F)nc2c(C(F)(F)F)cccc12)C1CCCCN1 (stereo unspecified) [MEFLOQUINE] | 0.0051 µg/mL (≈ 0.0135 µM) | 0.0063 µg/mL (≈ 0.0167 µM) | – | – | – | – | –
Cn1c2nc3ccccc3c-2cc2ccccc21 [NEOCRYPTOLEPINE] | 0.065 µg/mL (≈ 0.28 µM) | 0.035 µg/mL (≈ 0.151 µM) | 0.051 µg/mL (≈ 0.22 µM) | – | – | – | –
c1ccc2nc3c(cc2c1)[nH]c1ccccc13 [QUINDOLINE] | 0.108 µg/mL (≈ 0.495 µM) | 0.063 µg/mL (≈ 0.289 µM) | 0.087 µg/mL (≈ 0.399 µM) | – | – | 48.2% | 42.1%
C=C[C@H]1CN2CC[C@H]1C[C@H]2[C@H](O)c1ccnc2ccc(OC)cc12 [QUININE] | – | 0.0176 µg/mL (≈ 0.0542 µM) | 0.0352 µg/mL (≈ 0.108 µM) | – | – | – | –
